One test deals with cavernous body. Description: Relaxation in vitro of cavernous body tissue precontracted with phenylephrine. In kind it is cell-based, White New Zealand rabbits. The following applies: for Cavernous body % relaxation: tissue precontracted with phenylephrine 10 μM; for Power ratio: ratio between myorelaxing effect on cavernous body and effect on aorta. The source says:
(§1) The relaxing effect of the tested drugs on carvernous body tissues has been evaluated with experiments in vitro as a measure of the inhibiting action on the impotence, and on aorta tissues as expression of the undesired hypotensive effect.
(§2) White New Zealand rabbits were sacrificed, cavernous body and aorta specimens were taken and suitably prepared for the determination of the myorelaxing activity in vitro, according to the procedure described by J. Jeremy (Br. J. Urology 79,958-63,1997).
(§3) The tissues were precontracted with phenylephrine (10 μM) and the relaxation was determined in the presence of the compounds object of the invention.
(§4) The 2-(acetyloxy)benzoic acid 6-(nitroxy methyl)-2-methylpyridyl ester hydrochloride (NCX 4050) is prepared as described in patent application PCT/EP 00/01454 (Ex. 1) , the sildenafil nitrate has been prepared as described in patent application WO 99/67231 (Ex. 3). The products used in the experiment were dissolved in dimethylsulphoxide, except sodium nitroprussiate which was dissolved in distilled water.

The subject of a further test is aorta. Nature of the test: Relaxation in vitro of aorta tissue precontracted with phenylephrine (undesired hypotensive effect). Format: cell-based, White New Zealand rabbits. Conditions: tissue precontracted with phenylephrine 10 μM.
Description: as §1, §2, §3, §4

In test [1] the test system is aorta tissues pretreated with sodium nitroprussiate. Description: Aorta relaxation in vitro in the presence of the NO-donor sodium nitroprussiate. In kind it is cell-based, white New Zealand rabbits. The following applies: 10^−7 M; for Aorta relaxation: strips first treated with sodium nitroprussiate 10^−7 M, percentage with respect to the initial sodium nitroprussiate treatment. On the procedure:
The experiment was carried out as described in the previous Example, by using aorta tissues taken from white New Zealand rabbits.

Where a name gives a salt, the structure may show the parent alone.

With `CC(=O)Oc1ccccc1C(=O)Oc1ccc(CO[N+](=O)[O-])nc1C.Cl` [NCX 4050, 2-(acetyloxy)benzoic acid 6-(nitroxymethyl)-2-methylpyridyl ester hydrochloride], in the test with cavernous body (concentration 10^-6 M), the “Cavernous body % relaxation” value turned out to be 80% and the Power ratio is 1. This compound had an Aorta % with aorta (concentration 10^-6 M) of 80%.

As for `CCCc1nn(C)c2c(=O)[nH]c(-c3cc(S(=O)(=O)N4CCN(C)CC4)ccc3OCC)nc12` [Sildenafil Citrate, sildenafil citrate, reference compound], the “Cavernous body % relaxation” value in the test on cavernous body (concentration 3 × 10^-5 M) is 50%. In the test with aorta (concentration 3 × 10^-5 M), this compound displayed an Aorta % of 75%. Also, the Aorta relaxation in test [1] stood at 170%.

Regarding sildenafil nitrate, in the test with cavernous body (concentration 10^-6 M), the “Cavernous body % relaxation” value came to 100% and the Power ratio was 5. For the same compound, the Power ratio entry in the test with cavernous body (concentration 10^-6 M, listed as sildenafil nitrate) is recorded as “clearly in favour of the myorelaxing effect”. The compound further yielded an Aorta % in the test on aorta (concentration 10^-6 M) of 20%. In addition, the “Strengthening of the relaxing effect induced by sodium nitroprussiate (hypotensive effect), in words” value in test [1] (aorta strips pretreated with sodium nitroprussiate 10^−7 M) is given as “lower strengthening of the relaxing effect induced by sodium nitroprussiate compared with the sildenafil citrate”. For the same compound, the Aorta relaxation in test [1] is 120%.
